molecular target: T1, Proteasome Macropain subunit MB1 (Homo sapiens, UniProt P28074); assay: Inhibition of chymotrypsin-like activity of human 20S proteasome using Suc-Leu-Leu-Val-Tyr-AMC as substrate after 1 hr by fluorescence analysis
T1 sequence (P28074 whole entry): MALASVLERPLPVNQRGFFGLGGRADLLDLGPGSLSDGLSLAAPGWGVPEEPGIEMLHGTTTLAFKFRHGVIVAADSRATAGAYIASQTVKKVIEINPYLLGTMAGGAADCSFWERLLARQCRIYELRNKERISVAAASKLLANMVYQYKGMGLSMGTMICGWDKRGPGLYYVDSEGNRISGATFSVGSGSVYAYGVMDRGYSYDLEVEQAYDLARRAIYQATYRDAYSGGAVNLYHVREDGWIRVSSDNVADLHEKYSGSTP

In order of falling IC50:
1. CC(C)C[C@H](NC(=O)[C@H](Cc1ccccc1)Nc1ccccc1)B(O)O  335 nM
2. CC(C)C[C@H](NC(=O)[C@H](Cc1ccccc1)Oc1cccc2ccccc12)B(O)O  275 nM
3. CC(C)C[C@H](NC(=O)[C@H](Cc1ccccc1)Nc1cnccn1)B(O)O  192 nM
4. CC(C)C[C@H](NC(=O)[C@H](Cc1ccccc1)Nc1cccc2ccccc12)B(O)O  166 nM
5. CC(C)C[C@H](NC(=O)[C@H](Cc1ccccc1)Oc1cnccn1)B(O)O  155 nM
6. CC(C)C[C@H](NC(=O)[C@H](Cc1ccccc1)Oc1ccccc1)B(O)O  126 nM
7. CC(C)C[C@H](NC(=O)[C@H](Cc1ccccc1)OCc1cccc2ccccc12)B(O)O  109 nM
8. CC(C)C[C@H](NC(=O)[C@H](Cc1ccccc1)NCc1cccc2ccccc12)B(O)O  92 nM
9. CC(C)C[C@H](NC(=O)[C@H](Cc1ccccc1)NCc1cnccn1)B(O)O  65 nM
10. CC(C)C[C@H](NC(=O)[C@H](Cc1ccccc1)OCc1cnccn1)B(O)O  53 nM
11. CC(C)C[C@H](NC(=O)[C@H](Cc1ccccc1)OCc1ccccc1)B(O)O  36 nM
12. CC(C)C[C@H](NC(=O)[C@H](Cc1ccccc1)NCc1ccccc1)B(O)O  9.7 nM

system: not listed separately; assay: Metabolic stability in BALB/c mouse liver microsomes at 1 uM preincubated for 5 mins followed by NADP+ addition measured up to 40 mins by LC/MS method; assay type: ADME, microsome

In the case of CC(C)C[C@H](NC(=O)[C@H](Cc1ccccc1)NCc1ccccc1)B(O)O, the Stability is reported as “Stable”.

system: not listed separately; assay: Metabolic stability in human liver microsomes at 1 uM preincubated for 5 mins followed by NADP+ addition measured up to 40 mins by LC/MS method; assay type: ADME, microsome

For CC(C)C[C@H](NC(=O)[C@H](Cc1ccccc1)NCc1ccccc1)B(O)O, the Stability was “Stable”.

— ChEMBL document CHEMBL4118186 (Bioorg Med Chem Lett, 2018)
